Patent US4087603A, “Antifungal antibiotics” (priority 1976, dated 1978)

Legend:
Solubility = type: physicochemical
fungi = settings: cited from earlier work
[1] = test system: systemic fungal infections; settings: cited from earlier work
C. albicans A-26 = experiment: In vivo antifungal activity in X-irradiated mice infected intravenously with C. albicans A-26; settings: Candida albicans, A26, light or radiation study, sc, C. albicans A-26 i.v. infection, sub-lethal X-irradiation 24 hours prior, read-out: average effective dose, ED50
Protocol: As previously mentioned, the compounds of this invention are effective systemic antifungal agents. When administered orally or parenterally, the antifungal compounds of this invention are effective in combatting systemic fungal infections for example, Candida albicans systemic infections. […] The tests in mice were carried out in the following manner. Two groups of mice, one a control group, were exposed to a sub-lethal dose of X-irradiation 24 hours prior to infection with C. albicans A-26. The mice were infected by intravenous administration of C. albicans cells.

Acute toxicity in mice = type: in vivo

Structure (SMILES) | solubility in methanol (Solubility) | activity in vitro (known antibiotic) (fungi) | activity in vivo (known antibiotic) [1] | ED50 (C. albicans A-26) [mg/kg] | acute toxicity (Acute toxicity in mice; mice, dose of about 1000 mg./kg.) | solubility in acetone (Solubility; acetone) | solubility in ethanol (Solubility; ethanol) | solubility in water (Solubility) | acute toxicity (Acute toxicity in mice; dose of 400 mg./kg.)
Nc1ncnc2c1ncn2[C@@H]1O[C@H](CC(N)CC[C@H](N)C(=O)O)[C@@H](O)[C@H]1O (stereo partly drawn) [A-9145, 5'-deoxy-5'-(1,4-diamino-4-carboxybutyl)adenosine] | partially soluble | active both in vitro and in vivo | active both in vitro and in vivo |  |  |  |  |  | 
Nc1ncnc2c1ncn2[C@@H]1O[C@H](CC2CCC(N)C(=O)N2)[C@@H](O)[C@H]1O (stereo partly drawn) [compound I, 5'-deoxy-5'-(3-aminopiperidin-2-one-6-yl)adenosine] | sparingly soluble |  |  | 38 | no acute toxicity was observed | sparingly soluble | sparingly soluble | highly soluble | 
NC(=O)NC(CCC(N)C[C@H]1O[C@@H](n2cnc3c(N)ncnc32)[C@H](O)[C@@H]1O)C(N)=O (stereo partly drawn) [compound II, 5'-deoxy-5'-(1-amino-4-ureido-4-carboxyamidobutyl)adenosine] |  |  |  | ~21 |  |  |  | highly soluble | no acute toxicity was observed
